Test system: hyperlipidemia of SD rats
Assay: Therapeutic effect on hyperlipidemia of SD rats (lipid emulsion model)
Format: in vivo
Settings: for HDL-C (high density lipoprotein) / LDL-C (low density lipoprotein) / TG (serum triglyceride) / CHO (serum cholesterol): 21 days of continuous administration with lipid emulsion, fasted 12 h, serum, X ± SD, 5 animals per group; for blood lipid-reducing effect (in words) / reduction ratio of cholesterol (blood lipid-reducing effect): 21 days; for blood lipid-reducing effect (in words): hyperlipidemic SD rats, as shown by Table 1; for reduction ratio of cholesterol (blood lipid-reducing effect): (CHO of Model group - CHO of pharmaceutical-administrated group)/CHO of Model group*100%
Description: 1. Therapeutic Effect on Hyperlipidemia of SD Rats
Preparation process of lipid emulsion: 500 g of lard oil was taken, placed in a container, and heated to melt. When the temperature rose to 100° C., 200 g of cholesterol was added. After complete dissolution, 20 g of propylthiouracil was further added. The resulted mixture was stirred well, and added with 500 ml of Tween 80 after dissolution, resulting in an oil phase. At the same time, 600 mL of distilled water and 400 mL of 1,2-propanediol were taken and heated to 60° C. in a water bath, and then was added with 40 g of sodium deoxycholate. The resulted mixture was stirred well until complete dissolution was achieved, so as to give an aqueous phase. The aqueous phase was added into the oil phase and mixed well to give a lipid emulsion.
Process for modeling: Animals were fed adaptively for 3 days. Then, according to the body weight, 5 animals were selected as control and the remaining animals were intragastrically administered with the lipid emulsion during 9:00 to 11:00 am every day with 1 mL/100 g body weight for 2 weeks. After fasted for 12 hours, 1 mL of blood was collected from the orbits of the animals, and was determined by Hitachi Automatic Biochemical Analyzer 7080 for serum cholesterol (CHO), triglyceride (TG), low density lipoprotein (LDL-C) and high density lipoprotein (HDL-C). The animals having 4-7 mmol/L of CHO were used in the experiments.
The animals were continued with the intragastric administration of the lipid emulsion, and at the same time, the pharmaceutical-administered groups were administrated with the corresponding doses of pharmaceuticals, while the Model group was administrated with an equal volume of the solvent. The animals were administrated with the lipid emulsion in the morning and pharmaceuticals in the afternoon. The animals were measured for the body weight every Monday, and were observed. After 21 days of continuous administration, the animals were fasted for 12 hours. Then, 1 mL of blood was collected from the orbits, and was determined by Hitachi Automated Biochemical Analyzer 7080 for serum cholesterol (CHO), triglyceride (TG), low density lipoprotein (LDL-C) and high density lipoprotein (HDL-C).
The controls used in this experiment comprised Compound A and Simvastatin (also referred to as Sim herein).
The formula for calculating the blood lipid-reducing effect is: (CHO of Model group —CHO of pharmaceutical-administrated group)/CHO of Model group*100%. […] In this experiment, the effects of the compounds obtained herein for regulating blood lipids can be determined by using the blood cholesterol reduction as the main indicator, with reference to the decrease of triglyceride.

| SMILES | HDL-C (high density lipoprotein) (80 mg/kg) | LDL-C (low density lipoprotein) (80 mg/kg) | TG (serum triglyceride) (80 mg/kg) | blood lipid-reducing effect (in words) (80 mg/kg) | reduction ratio of cholesterol (blood lipid-reducing effect) (80 mg/kg) | CHO (serum cholesterol) (80 mg/kg) | CHO (serum cholesterol) (10 mg/kg) | HDL-C (high density lipoprotein) (10 mg/kg) | LDL-C (low density lipoprotein) (10 mg/kg) | TG (serum triglyceride) (10 mg/kg) |
| --- | --- | --- | --- | --- | --- | --- | --- | --- | --- | --- |
| CC(=O)c1ccc(NC(=O)C(C)(C)CCCOc2cc(C)ccc2C)cc1 [Compound 01] | 2.02 ± 0.27 mmol/L | 3.07 ± 1.25 mmol/L | 0.47 ± 0.27 mmol/L | significantly reduce the level of cholesterol | 59.75% | – | – | – | – | – |
| CC(=O)c1ccc(O)c(NC(=O)C(C)(C)CCCOc2cc(C)ccc2C)c1 [Compound 02] | 1.94 ± 0.49 mmol/L | 3.18 ± 0.71 mmol/L | 0.51 ± 0.19 mmol/L | significantly reduce the level of cholesterol | 54.40% | 4.86 ± 1.08 mmol/L | – | – | – | – |
| CC(=O)c1ccc(O)c(NC(=O)c2cccnc2)c1 [Compound 03] | 1.81 ± 0.27 mmol/L | 3.14 ± 1.06 mmol/L | 0.71 ± 0.16 mmol/L | significantly reduce the level of cholesterol | 57.22% | 4.56 ± 1.24 mmol/L | – | – | – | – |
| CC(=O)c1ccc(NC(=O)C(C)(C)Oc2ccc(Cl)cc2)cc1 [Compound 04] | 2.00 ± 0.52 mmol/L | 3.27 ± 1.34 mmol/L | 0.50 ± 0.15 mmol/L | significantly reduce the level of cholesterol | 54.03% | 4.90 ± 1.09 mmol/L | – | – | – | – |
| CC(=O)c1ccc(O)c(OC(=O)c2cccnc2)c1 [Compound 05] | 1.95 ± 0.50 mmol/L | 3.12 ± 0.34 mmol/L | 0.56 ± 0.23 mmol/L | significantly reduce the level of cholesterol | 56.56% | 4.63 ± 0.41 mmol/L | – | – | – | – |
| Cc1ccc(C)c(OCCCC(C)(C)C(=O)NCC(=O)c2ccc(O)cc2)c1 [Compound A, reference compound] | 1.41 ± 0.28 mmol/L | 4.97 ± 1.07 mmol/L | 0.58 ± 0.11 mmol/L | – | 42.30% | 6.15 ± 2.12 mmol/L | – | – | – | – |
| CCC(C)(C)C(=O)O[C@H]1C[C@@H](C)C=C2C=C[C@H](C)[C@H](CC[C@@H]3C[C@@H](O)CC(=O)O3)[C@H]21 [Sim, Simvastatin, reference compound] | – | – | – | – | – | – | 6.28 ± 0.76 mmol/L | 1.65 ± 0.26 mmol/L | 4.54 ± 0.36 mmol/L | 0.60 ± 0.07 mmol/L |

Reference: patent US10800733B2, “Acetophenone compound, preparation method therefor, and application thereof in blood lipid regulation” (Shanghai Bioenergy Medicine Science & Technology Co., Ltd., priority 2017, dated 2020)
